Assay [1] deals with humans. The note with it: cited from earlier work.
The target in assay [2] is T1, 5-HT transporter (SERT) (Homo sapiens, UniProt P31645). In words: interaction with the 5-HT transporter. The following applies: data on file.
For assay [3], the target named is 5-HT2A receptor (Homo sapiens, UniProt P28223). The following applies: cited from earlier work.
Assay [4] addresses T2, 5-HT1A receptor (Homo sapiens, UniProt P08908).
T2 sequence (P08908 1-422): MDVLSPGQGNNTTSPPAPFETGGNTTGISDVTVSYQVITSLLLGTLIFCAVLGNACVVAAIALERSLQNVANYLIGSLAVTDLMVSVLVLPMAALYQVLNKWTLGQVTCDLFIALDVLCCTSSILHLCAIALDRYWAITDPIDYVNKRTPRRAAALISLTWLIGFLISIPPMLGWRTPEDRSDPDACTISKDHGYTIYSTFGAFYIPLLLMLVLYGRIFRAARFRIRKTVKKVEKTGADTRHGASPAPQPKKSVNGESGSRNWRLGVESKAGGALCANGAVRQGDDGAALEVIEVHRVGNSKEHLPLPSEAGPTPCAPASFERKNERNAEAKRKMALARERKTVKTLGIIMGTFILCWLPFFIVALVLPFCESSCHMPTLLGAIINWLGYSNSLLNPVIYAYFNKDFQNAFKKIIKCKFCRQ
The following applies: literature and data on file; cited from earlier work.

Assay [5] concerns the target D2 receptors (Homo sapiens, UniProt P14416). The note with it: literature and data on file; cited from earlier work.
In assay [6] the target is T1, 5-HT transporter (SERT). The following applies: cited from earlier work.

The text below walks through data of patent US20240174594A1, “4-ALKENYL AND 4-ALKYNYL PHENETHYLAMINE DERIVATIVES AND RELATED COMPOUNDS WITH MODIFIED DOM-LIKE ACTION” (priority 2022, published 2024).

Chain of 5-HT2A receptor (P28223 whole entry): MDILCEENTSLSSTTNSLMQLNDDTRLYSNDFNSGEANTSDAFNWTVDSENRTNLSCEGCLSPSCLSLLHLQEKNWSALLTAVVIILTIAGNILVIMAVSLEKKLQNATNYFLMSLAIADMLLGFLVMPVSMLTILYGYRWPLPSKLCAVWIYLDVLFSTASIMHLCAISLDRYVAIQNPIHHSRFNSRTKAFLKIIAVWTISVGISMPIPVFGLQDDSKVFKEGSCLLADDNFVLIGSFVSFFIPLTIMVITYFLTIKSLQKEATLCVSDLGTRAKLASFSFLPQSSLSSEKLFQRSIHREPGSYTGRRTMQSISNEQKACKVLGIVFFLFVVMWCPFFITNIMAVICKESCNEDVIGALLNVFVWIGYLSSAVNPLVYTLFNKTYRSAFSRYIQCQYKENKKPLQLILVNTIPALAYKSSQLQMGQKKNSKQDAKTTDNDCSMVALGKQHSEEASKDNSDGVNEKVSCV
T1 sequence (P31645 whole entry, species assumed): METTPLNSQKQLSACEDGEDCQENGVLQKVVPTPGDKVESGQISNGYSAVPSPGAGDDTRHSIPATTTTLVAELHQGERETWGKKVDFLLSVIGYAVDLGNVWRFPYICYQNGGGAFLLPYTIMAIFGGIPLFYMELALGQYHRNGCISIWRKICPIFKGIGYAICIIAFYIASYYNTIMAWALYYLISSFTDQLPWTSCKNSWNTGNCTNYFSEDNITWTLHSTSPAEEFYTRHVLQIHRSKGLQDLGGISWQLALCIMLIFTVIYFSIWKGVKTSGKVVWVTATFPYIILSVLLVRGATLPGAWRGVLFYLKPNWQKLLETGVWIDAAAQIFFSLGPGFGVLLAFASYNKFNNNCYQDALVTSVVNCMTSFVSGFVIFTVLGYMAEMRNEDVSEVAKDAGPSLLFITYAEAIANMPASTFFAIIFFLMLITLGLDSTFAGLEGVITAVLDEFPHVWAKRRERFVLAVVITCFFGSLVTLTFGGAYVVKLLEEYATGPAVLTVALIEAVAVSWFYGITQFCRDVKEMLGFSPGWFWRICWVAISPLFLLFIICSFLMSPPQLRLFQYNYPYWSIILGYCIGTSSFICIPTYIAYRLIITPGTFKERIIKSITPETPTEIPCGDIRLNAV
Chain of D2 receptors (P14416 whole entry): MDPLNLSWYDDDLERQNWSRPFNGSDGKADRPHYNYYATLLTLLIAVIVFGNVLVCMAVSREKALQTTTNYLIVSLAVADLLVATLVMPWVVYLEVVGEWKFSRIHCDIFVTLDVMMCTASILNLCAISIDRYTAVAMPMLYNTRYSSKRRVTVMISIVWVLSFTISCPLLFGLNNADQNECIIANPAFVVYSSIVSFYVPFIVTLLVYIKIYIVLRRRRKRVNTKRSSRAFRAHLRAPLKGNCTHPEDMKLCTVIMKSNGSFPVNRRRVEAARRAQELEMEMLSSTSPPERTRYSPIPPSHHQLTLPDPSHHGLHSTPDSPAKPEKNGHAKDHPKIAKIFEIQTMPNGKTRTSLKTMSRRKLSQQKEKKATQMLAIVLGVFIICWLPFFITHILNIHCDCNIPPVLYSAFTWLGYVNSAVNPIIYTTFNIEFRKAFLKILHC

Regarding `COc1cc(CCN)c(OC)cc1C` [2C-D, 2,5-dimethoxy-4-methylphenethylamine], in assay [1], the “duration of action / psychoactive effects” value was 4 to 6 h and the “psychoactive dose in humans (full active doses / human potency)” value is 20 to 60 mg.

Take `C#Cc1cc(OC)c(CCN)cc1OC.Cl` [2C-YN, 2,5-Dimethoxy-4-ethynylphenethylamine hydrochloride]: the “duration of action / psychoactive effects” value in assay [1] was 2 to 3 h.

For the molecule `COc1cc(CC(C)N)c(OC)cc1C` (centres unmarked) [DOM, 2,5-dimethoxy-4-methylamphetamine], the “interaction with the SERT” value in assay [2] is “do not interact”. In assay [1], the “duration of action / psychoactive effects” value is 14 to 20 h; the “psychoactive dose in humans (full active doses / human potency)” value was 3 to 10 mg; the “psychoactive dose, off of baseline” value is on record as 1 mg; the “time to first subjective effects” value is 30 min. Also, the “time to full effects (onset of action)” value in assay [1] was “up to 2 hours”. Besides, the “5-HT2A receptor affinity” value in assay [3] is “high affinities”. In assay [4], the “5-HT1A receptor affinity” value is recorded as “very low affinity”. The “D2 receptor affinity” value in assay [5] was “no affinity”.

As to `CCN(CC)C(=O)[C@@H]1C=C2c3cccc4[nH]cc(c34)C[C@H]2N(C)C1` [LSD, lysergic acid diethylamide], in assay [1], the “duration of action / psychoactive effects” value is 8 to 12 h.

Take `CN(C)CCc1c[nH]c2cccc(O)c12` [Psilocin]: in assay [6], the “action at the SERT” value is “inhibits”.

Take `COc1cc(CCN)cc(OC)c1OC` [mescaline]: the “5-HT2A receptor affinity” value in assay [3] is recorded as “very weak”. Besides, the “D2 receptor affinity” value in assay [5] was “no affinity”.

As for `COc1cc(C)cc(OC)c1CC(C)N` (centres unmarked) [ψ-DOM, 2,6-dimethoxy-4-methylamphetamine], in assay [1], the “duration of action / psychoactive effects” value was 6 to 8 h and the “psychoactive dose in humans (full active doses / human potency)” value is 15 to 25 mg. For the same molecule, the “dose relative to DOM” value in assay [1] (higher dose than DOM) was 3- to 5 fold. Further, the “5-HT2A binding affinity in comparison to DOM” value in assay [3] is given as “approximately three-fold lower”.
